Measurements from patent US12286442B2, “Methods and materials for increasing transcription factor eb polypeptide levels” (University of Pittsburgh—Of the Commonwealth System of …, priority 2019, dated 2025).

What was measured:
[1] = tested on: TFEB; assay: High content screen measuring TFEB nuclear accumulation (TFEB nuclear/cytosol ratio) in BEAS-2B cells stably expressing TFEB-EGFP; format: cell-based, human; settings: 18 hours incubation
Method: FIG. 3. High content screen assay (384 well) measuring TFEB nuclear accumulation. Approximately 2500 primary and immortalized human bronchial epithelial cells (BEAS-2B) stably expressing TFEB-EGFP in 25 μL of HITEs media with 10% FBS were dispensed into 384 well plate (Black with glass bottom) and incubated for 8 hours. Compound serial dilution (DMEM low glucose media with 2% FBS, 25 μL volume) were prepared using a robotic liquid hander. Compound solutions were then added to the cell plate and incubated for 18 hours. Cells were then fixed with 4% PFA followed by DAPI staining. TFEB localization was imaged on the GFP channel along with the DAPI signal using a Cytation 5 high content imager. Images were processed through Biotek Gen5 software; specifically, the DAPI signal was used as the primary mask to quantify the nuclear TFEB-GFP signal. The cytosolic TFEB-GFP signal was quantified through expanding the primary mask. The TFEB nuclear/cytosol ratios were calculated from nuclear TFEB-GFP signal/cytosol TFEB-GFP signal, which determined the compound efficacy. […] Compound activities (μM) were determined by the minimal compound concentration needed to increase TFEB nuclear/cytosol ratio by 25%. Activity: “−” equals >25 μM; “+” equals between 25 μM and >10 μM; “++” equals between ≤10 μM and >1 μM; and “+++” equals […]. N=4.
(§1) Approximately 2300 primary and immortalized human bronchial epithelial cells (BEAS-2B) stably expressing TFEB-EGFP in 25 μL of HITEs media with 10% FBS were dispensed into 384 well plate (Black with glass bottom) and incubated for 8 hours. Compound serial dilution (DMEM low glucose media with 2% FBS, 25 μL volume) were prepared using a robotic liquid hander. Compound solution were then added to the cell plate and incubated for 18 hours. Cells were then fixed with 4% PFA followed by DAPI staining. TFEB localization was imaged on the GFP channel along with the DAPI signal using a Cytation 5 high content imager. Images were processed through Biotek Gen5 software. Specifically, the DAPI signal was used as the primary mask to quantify the nuclear TFEB-GFP signal. Cytosolic TFEB-GFP signal was quantified through expanding the primary mask. The TFEB nuclear/cytosol ratios were calculated from nuclear TFEB-GFP signal/cytosol TFEB-GFP signal, which determined the compound efficacies.
Compounds efficacies (μM) were determined by the minimal compound concentration needed to increase TFEB nuclear/cytosol ratio by 25%. Activity: “+” equals >25 μM; “++” equals between ≤25 μM and >1 μM; and “+++” equals ≤1 μM.
A high-content imaging screen was conducted using Beas2B cells that stably express GFP-TFEB.

[2] = tested on: BEAS-2B cells; assay: Toxicity: compound concentration needed to induce greater than 50 percent of cell loss; format: cell-based, human; settings: 18 hours incubation
Method: as §1
Toxicity was determined by determining the compound concentration needed to induce greater than 50 percent of cell loss. For toxicity, cell loss of greater than 50 percent at a concentration that equals or is greater than 25 μM was represented as cell loss of greater than 50 percent at a concentration less than 25 μM and greater than 1 μM was represented as and cell loss of greater than 50 percent at a concentration that equals or is less than 1 μM was represented as “+++.” The assay results for compounds 1-202, 214-248, 332, 333, and 352-402 are shown in Table A.

Compound | efficacy (minimal compound concentration needed to increase TFEB nuclear/cytosol ratio by 25%) [1] | toxicity (compound concentration needed to induce greater than 50 percent of cell loss) [2]
c1ccc2c(Nc3ccc4scnc4c3)nc(-c3ccncc3)nc2c1 [Compound 27] | +++ (“+++” equals ≤1 μM) | + (cell loss of greater than 50 percent at a concentration that equals or is greater than 25 μM was represented as)
Cn1cnc2cc(Nc3nc(-c4ccncc4)nc4ccccc34)ccc21 [Compound 28] | + (“+” equals >25 μM) | + (cell loss of greater than 50 percent at a concentration that equals or is greater than 25 μM was represented as)
Cc1nc2cc(Nc3nc(-c4ccncc4)nc4ccccc34)ccc2[nH]1 [Compound 29] | ++ (“++” equals between ≤25 μM and >1 μM) | + (cell loss of greater than 50 percent at a concentration that equals or is greater than 25 μM was represented as)
Cc1cc2c(F)c(Nc3nc(-c4ccncc4)nc4ccccc34)ccc2[nH]1 [Compound 30] | +++ (“+++” equals ≤1 μM) | +++ (cell loss of greater than 50 percent at a concentration that equals or is less than 1 μM was represented as “+++.”)
Cn1ncc2cc(Nc3nc(-c4ccncc4)nc4ccccc34)ccc21 [Compound 31] | +++ (“+++” equals ≤1 μM) | +++ (cell loss of greater than 50 percent at a concentration that equals or is less than 1 μM was represented as “+++.”)
Cn1ccc2ccc(Nc3nc(-c4ccncc4)nc4ccccc34)cc21 [Compound 32] | +++ (“+++” equals ≤1 μM) | +++ (cell loss of greater than 50 percent at a concentration that equals or is less than 1 μM was represented as “+++.”)
O=C1NC(=O)c2cc(Nc3nc(-c4ccncc4)nc4ccccc34)ccc21 [Compound 33] | + (“+” equals >25 μM) | + (cell loss of greater than 50 percent at a concentration that equals or is greater than 25 μM was represented as)
Cc1nc2ccc(Nc3nc(-c4ccncc4)nc4ccccc34)cc2o1 [Compound 34] | +++ (“+++” equals ≤1 μM) | + (cell loss of greater than 50 percent at a concentration that equals or is greater than 25 μM was represented as)
c1ccc2c(Nc3ccc4c(c3)CCN4)nc(-c3ccncc3)nc2c1 [Compound 35] | +++ (“+++” equals ≤1 μM) | ++ (cell loss of greater than 50 percent at a concentration less than 25 μM and greater than 1 μM was represented as)
Cc1nc2cc(Nc3nc(-c4ccncc4)nc4ccccc34)ccc2o1 [Compound 37] | ++ (“++” equals between ≤25 μM and >1 μM) | + (cell loss of greater than 50 percent at a concentration that equals or is greater than 25 μM was represented as)
N#Cc1c[nH]c2ccc(Nc3nc(-c4ccncc4)nc4ccccc34)cc12 [Compound 38] | + (“+” equals >25 μM) | + (cell loss of greater than 50 percent at a concentration that equals or is greater than 25 μM was represented as)
O=c1[nH]c2ccc(Nc3nc(-c4ccncc4)nc4ccccc34)cc2[nH]1 [Compound 39] | + (“+” equals >25 μM) | + (cell loss of greater than 50 percent at a concentration that equals or is greater than 25 μM was represented as)
O=C1Cc2cc(Nc3nc(-c4ccncc4)nc4ccccc34)ccc2N1 [Compound 40] | ++ (“++” equals between ≤25 μM and >1 μM) | + (cell loss of greater than 50 percent at a concentration that equals or is greater than 25 μM was represented as)
c1ccc2c(Nc3ccc4c(c3)OCCN4)nc(-c3ccncc3)nc2c1 [Compound 41] | ++ (“++” equals between ≤25 μM and >1 μM) | ++ (cell loss of greater than 50 percent at a concentration less than 25 μM and greater than 1 μM was represented as)
c1ccc2c(Nc3ccc4c(c3)NCCN4)nc(-c3ccncc3)nc2c1 [Compound 42] | +++ (“+++” equals ≤1 μM) | + (cell loss of greater than 50 percent at a concentration that equals or is greater than 25 μM was represented as)
Fc1cccc(Nc2nc(-c3ccncc3)cc3ccccc23)c1 [Compound 43] | ++ (“++” equals between ≤25 μM and >1 μM) | + (cell loss of greater than 50 percent at a concentration that equals or is greater than 25 μM was represented as)
c1ccc2c(Nc3ccc4[nH]ncc4c3)nc(N3CCOCC3)nc2c1 [Compound 44] | +++ (“+++” equals ≤1 μM) | + (cell loss of greater than 50 percent at a concentration that equals or is greater than 25 μM was represented as)
Cc1cnccc1-c1nc(Nc2ccc3[nH]ncc3c2)c2ccccc2n1 [Compound 45] | + (“+” equals >25 μM) | + (cell loss of greater than 50 percent at a concentration that equals or is greater than 25 μM was represented as)
Cc1cc(F)cc(Nc2nc(N3CCOCC3)nc3ccccc23)c1 [Compound 46] | + (“+” equals >25 μM) | + (cell loss of greater than 50 percent at a concentration that equals or is greater than 25 μM was represented as)
Fc1cc(-c2nc(Nc3ccc4[nH]ncc4c3)c3ccccc3n2)ccn1 [Compound 47] | +++ (“+++” equals ≤1 μM) | +++ (cell loss of greater than 50 percent at a concentration that equals or is less than 1 μM was represented as “+++.”)
c1ccc2c(Nc3ccc4[nH]ncc4c3)nc(-c3ccncc3)cc2c1 [Compound 48] | + (“+” equals >25 μM) | + (cell loss of greater than 50 percent at a concentration that equals or is greater than 25 μM was represented as)
c1ccc2c(Nc3ccc4[nH]ccc4c3)nc(-c3ccncc3)cc2c1 [Compound 49] | + (“+” equals >25 μM) | + (cell loss of greater than 50 percent at a concentration that equals or is greater than 25 μM was represented as)
c1ccc2c(Nc3ccc4[nH]ncc4c3)nc(N3CCNCC3)nc2c1 [Compound 50] | + (“+” equals >25 μM) | + (cell loss of greater than 50 percent at a concentration that equals or is greater than 25 μM was represented as)
CC(=O)c1cc(F)cc(Nc2nc(-c3ccncc3)nc3ccccc23)c1 [Compound 51] | + (“+” equals >25 μM) | + (cell loss of greater than 50 percent at a concentration that equals or is greater than 25 μM was represented as)
CC(=O)c1cc(C)cc(Nc2nc(-c3ccncc3)nc3ccccc23)c1 [Compound 52] | + (“+” equals >25 μM) | + (cell loss of greater than 50 percent at a concentration that equals or is greater than 25 μM was represented as)
